Columns and labels:
[1] = target: metalloproteinase purified from snake venom, Bothrops Jararaca; assay: Inhibition of metalloproteinase purified from Bothrops Jararaca venom; type: biochemical; details: Table 5; unit M
[2] = target: metalloproteinase purified from snake venom, Echis Carinatus; assay: Inhibition of metalloproteinase purified from Echis Carinatus venom; type: biochemical; details: Table 5; unit M
[3] = target: enzyme purified from the venom of Crotalus Adamanteus (hemorrhagin) (Crotalus adamanteus, UniProt P34179); type: biochemical; details: for IC50: read-out: IC50
Chain of enzyme purified from the venom of Crotalus Adamanteus (hemorrhagin) (P34179 whole entry, looked up): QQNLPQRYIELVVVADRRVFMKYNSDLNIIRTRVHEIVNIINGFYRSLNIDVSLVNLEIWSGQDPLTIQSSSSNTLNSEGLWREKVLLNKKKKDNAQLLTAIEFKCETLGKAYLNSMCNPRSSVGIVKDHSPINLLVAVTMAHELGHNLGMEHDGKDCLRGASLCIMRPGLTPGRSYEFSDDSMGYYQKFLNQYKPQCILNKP

[4] = tested on: blood cells that migrate to the inflamed site (lymphocytes, neutrophils, eosinophils, macrophages); assay: Hypereosinophilia induced in rats by Sephadex G-200 resin; type: in vivo; details: hypereosinophilia induced by Sephadex G-200 resin, result in words
Protocol: As the metalloproteinases produced by the cells of mammals are of fundamental importance to allow the cells to migrate from one tissue to another within the organism, Compounds 9, 18, 25 and 31 of the present invention, together with the compounds Z--Pro--Leu--Cyt and FUR--Leu--Cyt (Examples 1 and 8, respectively, of WO 92/06018) were tested on hypereosinophilia induced in rats by Sephadex G-200 resin.

[5] = target: metalloproteinase purified from snake venom, Bothrops Atrox; assay: Inhibition of metalloproteinase purified from Bothrops Atrox venom; type: biochemical; details: Table 5; unit M
[6] = Resistance to proteolytic activity in stomach juices (rat stomach homogenate, HPLC); details: 37° C.
Protocol: To check if the compounds of the present invention are resistant to proteolytic activity in stomach juices and, therefore, could be administered orally, the stomachs of fasting rats were homogenized in physiological solutions (1:1). 300 microliters of solutions of the compounds (1 mg/ml of saline) were incubated with 0.5 ml of stomach homogenates (37° C.).

[7] = tested on: human melanoma cell line VMM-5; assay: Matrigel-based invasion assay with human melanoma cells; type: cell-based; details: Concentration 500 micro M, VMM-5 cells, 20 hours
Excerpt: In order to obtain information about the possible interference of the synthesized compounds on the ability of tumor cells to migrate through the body (metastatization), the human melanoma cell line VMM-5 was used in the matrigel-based invasion assay, in which basal membrane matrigel (Becton Dickinson) and tissue culture inserts with 8 microns pore size in 24 well tissue culture plates were used as Boyden chambers. The chambers were coated with diluted matrigel and allowed to dry overnight; they were then reconstituted with serum free medium, and melanoma cells (4,000,000/ml) were dispensed in each insert. In the lower chambers, a chemoattractant was included. The chambers were finally placed in a humidified CO2 incubator at 37° C., and incubated for 20 hours. The inserts were dried and the cells on the upper surface removed. The polycarbonate filters were fixed with methanol, stained with hematoxylin and eosin, and counted with a microscope. Inhibition of migration due to compounds has been expressed as a percentage of the total number of migrated cells in the control chambers containing only the buffer in which the compounds were dissolved.

[8] = target: T1, recombinant human gelatinase B (Homo sapiens, UniProt P14780); assay: In vitro effects on recombinant human gelatinase B; type: biochemical
T1 construct: purchased Stangeways Laboratories, Cambridge, UK (so in the source)
T1 sequence (P14780 94-707): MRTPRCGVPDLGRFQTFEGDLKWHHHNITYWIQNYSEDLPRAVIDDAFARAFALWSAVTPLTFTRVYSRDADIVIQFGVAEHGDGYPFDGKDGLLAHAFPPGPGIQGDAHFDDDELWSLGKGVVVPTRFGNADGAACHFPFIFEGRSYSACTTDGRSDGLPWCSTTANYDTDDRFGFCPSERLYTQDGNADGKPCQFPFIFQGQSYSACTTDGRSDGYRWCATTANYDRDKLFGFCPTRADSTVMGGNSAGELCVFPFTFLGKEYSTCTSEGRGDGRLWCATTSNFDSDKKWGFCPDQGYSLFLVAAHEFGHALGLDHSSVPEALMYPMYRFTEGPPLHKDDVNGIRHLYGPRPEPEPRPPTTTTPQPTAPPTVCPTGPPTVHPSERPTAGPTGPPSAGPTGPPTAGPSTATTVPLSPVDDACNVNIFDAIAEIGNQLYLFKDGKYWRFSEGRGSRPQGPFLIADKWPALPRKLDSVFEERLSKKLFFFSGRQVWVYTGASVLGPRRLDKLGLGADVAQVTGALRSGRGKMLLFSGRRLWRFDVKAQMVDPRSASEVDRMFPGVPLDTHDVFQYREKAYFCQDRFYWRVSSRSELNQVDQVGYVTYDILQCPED
Protocol: Assays on human gelatinase B, another enzyme released by tumor cells, were performed using also, in this case, the protein obtained by recombinant biotechnology Stangeways Laboratories, Cambridge, UK). As usual, the enzymatic activity was followed over time, measuring the amount of fluorescent substrate cleaved by the enzyme, in the presence or absence of synthetic compounds (Perkin Elmer L50 B fluorimeter).

[9] = target: neutrophil collagenase (recombinant human) (Homo sapiens, UniProt P22894); assay: In vitro assays on recombinant human collagenase; type: biochemical
Chain of neutrophil collagenase (recombinant human) (P22894 101-467): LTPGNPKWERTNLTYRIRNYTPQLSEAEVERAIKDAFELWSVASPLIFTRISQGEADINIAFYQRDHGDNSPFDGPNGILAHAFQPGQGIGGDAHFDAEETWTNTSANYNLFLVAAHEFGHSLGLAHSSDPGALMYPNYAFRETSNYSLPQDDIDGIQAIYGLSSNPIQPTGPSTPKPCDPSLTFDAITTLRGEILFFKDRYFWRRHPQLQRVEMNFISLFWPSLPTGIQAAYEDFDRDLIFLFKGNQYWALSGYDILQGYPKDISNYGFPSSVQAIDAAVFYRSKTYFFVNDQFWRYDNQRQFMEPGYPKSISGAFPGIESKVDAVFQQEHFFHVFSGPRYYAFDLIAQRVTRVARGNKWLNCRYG
Protocol: Using the same enzymatic determination already described (fluorimetric detection of cleavage of a substrate peptide containing a fluorescent moiety), some of the compounds were tested on neutrophil collagenase, an enzyme described as participating in any kind of inflammatory reaction in mammalian bodies. In this case, the purified enxzyme was also obtained by recombinant means.

[10] = tested on: release of active TNF in human cell culture medium (Jurkat); assay: Release of active TNF from Jurkat cells (ELISA); type: cell-based; details: 72 hours incubation, stimulated with PMA and ionophore calcium
Protocol: It is well known that TNF plays a fundamental role in certain physiological defense responses but, on the other hand, causes severe damage when it is released into circulation in excessive amounts or for prolonged periods. […] An attempt was, therefore, made to see whether certain compounds selected from among those of the present application and of WO 92/06108 were capable of blocking the release of active TNF in human cell culture medium (Jurkat). The cells were incubated in the presence or in the absence of metalloproteinase inhibitor for 72 hours; the release of TNF was then stimulated using activators (PMA and ionophore calcium), and the Factor was dosed into the culture medium using the ELISA test (Genzyme).

[11] = target: T2, recombinant human gelatinase A (Homo sapiens, UniProt P08253); assay: In vitro effects on recombinant human gelatinase A; type: biochemical
T2 construct: purchased Strangeways Laboratories, Cambridge, UK
T2 sequence (P08253 110-660): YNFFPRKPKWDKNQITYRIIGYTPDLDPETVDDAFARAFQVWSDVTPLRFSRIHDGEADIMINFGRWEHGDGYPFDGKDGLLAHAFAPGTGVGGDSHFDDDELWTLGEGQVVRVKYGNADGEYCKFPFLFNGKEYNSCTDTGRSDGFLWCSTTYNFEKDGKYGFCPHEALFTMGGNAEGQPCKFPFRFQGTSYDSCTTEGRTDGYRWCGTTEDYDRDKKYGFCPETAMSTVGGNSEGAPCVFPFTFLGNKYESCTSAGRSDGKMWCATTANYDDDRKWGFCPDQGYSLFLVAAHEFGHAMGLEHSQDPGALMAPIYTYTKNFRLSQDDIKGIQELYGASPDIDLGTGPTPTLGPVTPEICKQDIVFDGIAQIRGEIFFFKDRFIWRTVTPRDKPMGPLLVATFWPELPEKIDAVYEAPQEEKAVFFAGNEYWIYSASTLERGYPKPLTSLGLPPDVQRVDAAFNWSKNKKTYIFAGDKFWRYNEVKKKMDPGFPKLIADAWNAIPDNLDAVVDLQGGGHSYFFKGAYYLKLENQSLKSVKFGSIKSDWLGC
Excerpt: Assays on human gelatinase A, an enzyme released in high concentration by any kind of tumor cells during the process of metastatization, and recognized also as a product of stimulated cells in many pathological processes, have been performed using the protein obtained by recombinant biotechnology (Strangeways Laboratories, Cambridge, UK). The enzymatic activity has been followed over time, measuring the amount of fluorescent substrate cleaved by the enzyme, in the presence or absence of synthetic compounds (Perkin Elmer L50 B fluorimeter).

[12] = tested on: hemorrhages and lethal results induced by snake venom; assay: Inhibition of hemorrhages and lethality induced by snake venom in mice; type: in vivo
[13] = tested on: TNF release from another strain of human cells in culture (clone T); assay: TNF release from human cells in culture (clone T); type: cell-based
[14] = tested on: microhemorrhages induced by histamine; assay: Histamine-induced microhemorrhages (capillary permeability) in hamsters; type: in vivo

| Molecule | IC50 [1] | IC50 [2] | IC50 [3] | Effect on number of blood cells that migrate to the inflamed site [4] | IC50 [5] | % Inhibition of Invasion [7] | IC50 of inhibition of TNF release by cells [10] | other results |
| --- | --- | --- | --- | --- | --- | --- | --- | --- |
| CC(C)C[C@H](NC(=O)c1cnccn1)C(=O)N1Cc2[nH]c3ccccc3c2C[C@H]1C(=O)O [Compound 18, 2-PZC--(L)--Leu--(S)--Cyt--OH] | 8.4 µM | 7 µM | 0.21 µM | interfered with the number of blood cells that migrate to the inflamed site | 5.2 µM | – | – | – |
| O=C(N[C@@H](CC1CCCCC1)C(=O)N1Cc2[nH]c3ccccc3c2C[C@H]1C(=O)O)c1ccco1 [Compound 10, 2-FUR--(L)--Cha--(S)--Cyt--OH] | – | – | 0.025 µM | – | – | 99% | around 200 mcg/ml | Residue after 60 Minutes ([6]; 60 minutes): 100%; Residue after 120 Minutes ([6]; 120 minutes): > 95%; % Inhibition ([8]; Concentration 1.1 × 10^-5 M): 32%; % Inhibition ([9]; Concentration 2.1 × 10^-5 M): 51% |
| Cc1ccc(C(=O)N[C@@H](CC(C)C)C(=O)N2Cc3[nH]c4ccccc4c3C[C@H]2C(=O)O)cn1 [Compound 22, 6-MNC--(L)--Leu--(S)--Cyt--OH] | 21 µM | 14 µM | 0.11 µM | – | 3.2 µM | – | – | % Inhibition ([11]; Concentration 8.0 × 10^-7 M): 47% |
| CC(C)C[C@H](NC(=O)c1ccccn1)C(=O)N1Cc2[nH]c3ccccc3c2C[C@H]1C(=O)O [Compound 9, PIC--(L)--Leu--(S)--Cyt--OH] | – | – | 0.027 µM | interfered with the number of blood cells that migrate to the inflamed site | – | 94% | around 8 mcg/ml | % Inhibition ([8]; Concentration 1.1 × 10^-5 M): 20% |
| CC(C)C[C@H](NC(=O)c1ccco1)C(=O)N[C@@H](Cc1c[nH]c2ccccc12)C(=O)O [2-FUR--Leu--Trp] | – | – | – | – | – | – | – | % Inhibition ([8]; Concentration 1.0 × 10^-5 M): 22%; % Inhibition ([9]; Concentration 2.4 × 10^-5 M): 12%; In vitro inhibition of the metalloproteinase purified from the venom of Crotalus Adamanteus [3]: excellent in vitro inhibitor; Protection of mice from death by injection of the venom ([12]; dose of 33 mcg/mouse, even when administered after the venom (up to 30 minutes)): capable of protecting the mice from death; Neutralizing the toxic effects of hemorrhagic factors of various snake venom ([12]; mice, compound incubated with the hemorrhagic factors): capable of neutralizing the toxic effects thereof; % Inhibition ([11]; Concentration 1.0 × 10^-7 M): 41% |
| CC(C)C[C@H](NC(=O)c1cc2ccccc2o1)C(=O)N1Cc2[nH]c3ccccc3c2C[C@H]1C(=O)O [Compound 15, 2-BZF--(L)--Leu--(S)--Cyt--OH] | 14 µM | 2 µM | 0.04 µM | – | 8.2 µM | – | – | – |
| 4-MBZ--(L)--Trp--(S)--Cyt--OH [Compound 25] | – | – | 0.054 µM | interfered with the number of blood cells that migrate to the inflamed site | – | – | around 0.7 mcg/ml | % Inhibition ([9]; Concentration 5.2 × 10^-5 M): 23% |
| Z--Pro--Leu--Cyt | – | – | – | interfered with the number of blood cells that migrate to the inflamed site | – | 70% | around 5 mcg/ml | % Inhibition ([8]; Concentration 9.0 × 10^-6 M): 32%; % Inhibition ([9]; Concentration 1.8 × 10^-5 M): 23%; IC50 of inhibition of TNF release [13]: lower than 1 mcg/ml; Dose capable of blocking 50% of effects ([14]; administered orally): around 50 mcg/Kg; Dose capable of blocking 50% of effects ([14]; injected intravenously): around 50 mcg/Kg; Blocking microhemorrhages induced by histamine ([14]; result in words): extremely powerful in blocking microhemorrhages induced by histamine; % Inhibition ([11]; Concentration 1.8 × 10^-7 M): 64% |
| FUR--Leu--Cyt | – | – | – | interfered with the number of blood cells that migrate to the inflamed site | – | 69% | – | – |

— US5846755A (priority 1995, dated 1998)
